According to ChEMBL document CHEMBL1201862, “PubChem BioAssay data set” (2004):
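In this assay, cells in 96-well plates receive the compound at five concentrations for 48 hours. Endpoints are linearly interpolated between the surrounding concentrations. The concentration for 50% growth inhibition is given as GI50.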 The source made the active and inactive calls. Cut-off read from the data, not from the text of the source: active = GI50 up to about 1.1 µM and inactive = higher.

How the values were obtained:
Test in all cases: DTP human tumour cell line panel, 48 h
[1] = test system: SK-MEL-2
[2] = test system: SF-268
[3] = test system: SNB-75
[4] = test system: MDA-MB-435
[5] = test system: HT-29
[6] = test system: K562
[7] = test system: SK-MEL-28
[8] = test system: NCI-H460
[9] = test system: RPMI-8226
[10] = test system: SW-620
[11] = test system: HCT-15
[12] = test system: HOP-62
[13] = test system: A549
[14] = test system: NCI/ADR-RES
[15] = test system: SK-OV-3
[16] = test system: U-251
[17] = test system: SF-295
[18] = test system: BT-549
[19] = test system: LOX IMVI
[20] = test system: M14
[21] = test system: RXF 393
[22] = test system: MCF7
[23] = test system: UO-31
[24] = test system: HCC 2998
[25] = test system: CAKI-1
[26] = test system: DU-145
[27] = test system: SK-MEL-5
[28] = test system: OVCAR-8
[29] = test system: NCI-H23
[30] = test system: A498
[31] = test system: OVCAR-3
[32] = test system: Hs-578T
[33] = test system: HL-60
[34] = test system: OVCAR-5
[35] = test system: ACHN
[36] = test system: OVCAR-4
[37] = test system: IGROV-1
[38] = test system: HOP-92
[39] = test system: NCI-H522
[40] = test system: COLO 205
[41] = test system: MOLT-4
[42] = test system: T47D
[43] = test system: PC-3
[44] = test system: SNB-19
[45] = test system: SF-539
[46] = test system: SN12C
[47] = test system: CCRF-CEM
[48] = test system: Malme-3M
[49] = test system: UACC-257
[50] = test system: KM12
[51] = test system: EKVX
[52] = test system: HCT-116
[53] = test system: TK-10
[54] = test system: UACC-62
[55] = test system: MDA-MB-231

Compound: Oc1ccc(NCn2c(=S)sc3ccccc32)cc1
- GI50 [1]: > 100 µM (inactive)
- GI50 [2]: > 100 µM (inactive)
- GI50 [3]: 54.8 µM (inactive)
- GI50 [4]: > 100 µM (inactive)
- GI50 [5]: > 100 µM (inactive)
- GI50 [6]: 22.3 µM (inactive)
- GI50 [7]: > 100 µM (inactive)
- GI50 [8]: > 100 µM (inactive)
- GI50 [9]: 26.2 µM (inactive)
- GI50 [10]: 42.7 µM (inactive)
- GI50 [11]: > 100 µM
- GI50 [12]: > 100 µM (inactive)
- GI50 [13]: > 100 µM (inactive)
- GI50 [14]: > 100 µM (inactive)
- GI50 [15]: > 100 µM (inactive)
- GI50 [16]: > 100 µM (inactive)
- GI50 [17]: > 100 µM (inactive)
- GI50 [18]: > 100 µM (inactive)
- GI50 [19]: > 100 µM (inactive)
- GI50 [20]: > 100 µM (inactive)
- GI50 [21]: > 100 µM (inactive)
- GI50 [22]: 92.9 µM (inactive)
- GI50 [23]: 89.9 µM (inactive)
- GI50 [24]: > 100 µM (inactive)
- GI50 [25]: > 100 µM (inactive)
- GI50 [26]: > 100 µM (inactive)
- GI50 [27]: > 100 µM (inactive)
- GI50 [28]: > 100 µM (inactive)
- GI50 [29]: > 100 µM (inactive)
- GI50 [30]: > 100 µM (inactive)
- GI50 [31]: 97.9 µM (inactive)
- GI50 [32]: 50 µM (inactive)
- GI50 [33]: 59.6 µM (inactive)
- GI50 [34]: > 100 µM (inactive)
- GI50 [35]: > 100 µM (inactive)
- GI50 [36]: 91 µM (inactive)
- GI50 [37]: 33.2 µM (inactive)
- GI50 [38]: 33 µM (inactive)
- GI50 [39]: 17.7 µM (inactive)
- GI50 [40]: > 100 µM (inactive)
- GI50 [41]: 34.2 µM (inactive)
- GI50 [42]: 34.4 µM (inactive)
- GI50 [43]: > 100 µM (inactive)
- GI50 [44]: > 100 µM (inactive)
- GI50 [45]: > 100 µM (inactive)
- GI50 [46]: > 100 µM (inactive)
- GI50 [47]: 32 µM (inactive)
- GI50 [48]: > 100 µM (inactive)
- GI50 [49]: > 100 µM (inactive)
- GI50 [50]: > 100 µM (inactive)
- GI50 [51]: > 100 µM (inactive)
- GI50 [52]: > 100 µM (inactive)
- GI50 [53]: > 100 µM (inactive)
- GI50 [54]: 84.5 µM (inactive)
- GI50 [55]: > 100 µM (inactive)
